The subject of one series is strain VUN 10,010. Kind of series: Agar (well) diffusion toxicity test of surfactants. Type of series: cell-based, Stenotrophomonas maltophilia. How it is done: The agar diffusion method was used to determine the effects of surfactants on growth by observing zones of inhibition on peptone-glucose agar (Cserhali et al, 1991). The medium contained per litre: 5 g peptone, 5 g glucose, 0.5 g NaCl, 3 g beef extract, 20 g agar; the pH was adjusted to 7.0 and sterilized by autoclaving for 15 min at 121° C. Bacterial cultures were mixed with the molten medium (25 ml) to obtain an inoculum size of approximately 10^8 cells ml^−1, and this was poured into a Petri dish. Once the cell-medium mixture had solidified, 7 mm diameter holes were made, and 150 μl of aqueous surfactant solutions was added (0.1-10.0 g l^−1). Growth inhibition zones were observed after 48-72 h at 30° C.

The subject of series [1] is Bacterial consortium VUN 10,009. As to the kind of experiment: Degradation of high molecular weight PAHs by axenic cultures. Type of series: cell-based. As for the experimental part: (§1) PAH concentrations in the DCM extracts were measured on a Varian Star 3400 gas chromatograph, equipped with a flame ionization detector, using a BPX-5 capillary column (25 m×0.22 mm). The nitrogen carrier flow rate was 0.8 ml min^−1 with a pressure of 20 psi under split conditions (95:1). The oven temperature was programmed at 200° C. for 1 min, followed by a linear increase of 10° C. min^−1 to 320° C.; this temperature was held for 15 min. Injector and detector temperatures were maintained at 300° C. The peak areas of both internal standard and PAH were used to calculate peak area ratios. Ratios obtained for each sample, as well as controls, were compared to those of PAH standards.
(§2) PAH degradation experiments using axenic bacterial and fungal cultures, and fungal-bacterial co-culture, were performed in 30 ml reaction vials containing 10 ml of medium. Before inoculation, 0.1 ml of PAH stock solution (either single PAH or mixed PAH stock as described above) was introduced into the medium. This medium was then inoculated with microorganisms to produce either axenic cultures or co-cultures. Axenic cultures were inoculated with either bacteria (1 ml) to provide an initial cell population of approximately 10^4 cells ml^−1, or with mycelial pellets (0.25 g wet weight) in 10 ml of BSM. For the co-culture experiments, BSM (10 ml) contained bacteria (10^4 cells ml^−1) and 0.25 g wet weight of mycelial pellets. Experiments to investigate of co-metabolic PAH degradation by P. janthinellum were conducted with the PAH in BSM supplemented with glucose (1% final concentration) or MYPD medium. […] Medium (10 ml) was inoculated with fungal or bacterial culture using the same inoculum size as described above. All cultures were aseptically flushed with filtered (0.22 μm) air (0.2 litres min^−1) for 5 seconds on the day of inoculation and every 7 days thereafter. Abiotic controls were sterile medium containing only PAH(s). Killed-cell controls were the PAH-containing medium inoculated with a killed microbial population. The experimental cultures were conducted in triplicate, and all controls were run in duplicate. All cultures were incubated in the dark at 30° C./175 rpm. At designated time intervals the entire culture (10 ml) was sacrificed for the PAH-extraction procedure and biomass determinations.

Another series deals with VUN 10,010. The description is as above. Type of series: cell-based, Stenotrophomonas maltophilia. How it is done: as §1, §2
Series [2] deals with P. janthinellum VUO 10,201. The series is described as above. Type of series: cell-based, Penicillium janthinellum. As for the experimental part:
as §1, §2

Series [3] in a line: PAH solubilization by surfactants (apparent solubility, MSR, Km). How it is done:
PAHs (approximately 1 g l^−1) were added to a 10 ml solution of BSM plus surfactant in a 30 ml glass reaction vial, which was sealed with an aluminium cap fitted with a septum. Surfactant concentrations corresponded to levels above, below, and at the CMC, and replicates were set up to allow sampling in duplicate at different time intervals up to 72 h. Incubation was performed at 30° C. and 175 rpm. The entire vial contents was collected by syringe and expressed through a preconditioned membrane filter (0.22 μm, Sartorius AG, Germany) to remove solid-phase crystalline PAH while allowing solubilized PAH in the aqueous phase and micellar pseudophase to pass into sterile vials. The filter was preconditioned by purging the filter with a few mls of sample solution to allow sorption saturation of the internal surfaces of the syringe, filter and needle. The filtrates were extracted with dichloromethane (DCM), and the concentration of solubilized PAH was determined by GC-FID as described below.
The effectiveness of a particular surfactant in solubilizing a given PAH can be assessed by determining the molar solubilization ratio (MSR) and micelle/water partition coefficient (Km). In our study, the concentrations of added PAHs were well in excess of aqueous saturation concentrations; therefore the MSR value of each compound can be obtained from the slope of the curve generated from a plot of PAH concentration versus surfactant concentration for surfactant concentrations above CMC (Edwards et al, 1991).
Km values can be determined from the measured MSR values according to the following equation (Edwards et al, 1991): [formula]
^SPAH, CMC is the apparent solubility of the PAH (mol l^−1) at surfactant CMC. VW is the molar volume of water at 30° C. ie. 0.018015 l mol^−1(Rogers and Mayhew, 1981).

Series [4] relates to S. maltophilia VUN 10,010. Kind of series: Degradation of single high molecular weight PAHs by high initial populations of VUN 10,010 with surfactant. Type of series: cell-based, Stenotrophomonas maltophilia. How it is done:
[…] Incubations contained a single PAH in BSM at 30° C. The PAH remaining was calculated as a percentage relative to the PAH recovered from the […]. Averages for the test cultures are from triplicate experiments.
Tergitol NP-10 (5 and 10 g l^−1) was added to BSM broths each containing a single high molecular weight PAH.

The subject of series [5] is S. maltophilia VUN 10,010. Kind of series: Degradation of a PAH mixture by VUN 10,010 with surfactant, low initial cell population. Type of series: cell-based, Stenotrophomonas maltophilia. The conditions noted are these: for Maximum Specific Degradation Rate: — = not appreciable. As for the experimental part:
The incubations were conducted in BSM at 30° C., using low initial cell populations. The PAH remaining was calculated as a percentage relative to the PAH recovered from the uninoculated control. Averages for the test cultures are from triplicate experiments.
A low initial cell population of around 9×10^3 cells ml^−1 was used.

Series [6] is described as follows: Surfactant critical micelle concentration, duNouy ring tensitometer. As to conditions: for CMC in BSM compared with deionized (distilled) water: 30° C.; for CMC: in BSM. In kind it is physicochemical. As for the experimental part: Experiments to evaluate surfactant CMC values were conducted at 30° C. using a duNouy ring tensitometer (Cambridge Instrument Company Limited, London, England). All glassware was cleaned with chromic acid solution, and the tensitometer ring was cleaned with acetone and heated to redness in a gas flame. Various concentrations of surfactant solutions were prepared in deionized water and BSM. Surfactant solutions were allowed to equilibrate for approximately 2 h before measurements were made. Measurements were an average of five readings (SD<0.3%). CMC value was taken from the plot of surface tension versus log surfactant concentration, as described by Kile and Chiou (1989).

The subject of series [7] is S. maltophilia VUN 10,010. Kind of series: Pyrene degradation and growth of VUN 10,010 in the presence of surfactants. In kind it is cell-based, Stenotrophomonas maltophilia. The conditions noted are these: for effect on growth of VUN 10,010 on pyrene (protein analysis, MPN): surfactant 5-10 g l^−1; for effect on pyrene degradation by VUN 10,010: surfactant 5-10 g l^−1 (up to 10 g l^−1). How it is done: Each surfactant was added to the medium to achieve the following concentrations: 0.5 g l^−1 (▴), 5.0 g l^−1 (●) and 10.0 g l^−1 (▪). The control cultures ( ) contained no added surfactant. The incubations were performed in BSM at 30° C., using low initial cell populations.
Growth was monitored by measuring protein concentration and viable cell numbers at regular intervals up to 10 days. Viable cell numbers were determined by most probable number (MPN) estimates (Collin et al, 1989).
Three types of controls were used: cultures containing no surfactant, uninoculated broth, and killed cell cultures (0.2% HgCl2). All cultures were incubated at 30° C./175 rpm. Bacterial growth was determined by MPN estimates.

For series [8] the following is noted: data from the manufacturers; cited from earlier work.
The conditions of series [9]: Ghosh et al (1995); medium and temperature not specified; cited from earlier work.
Where [10] appears, read: BSM + PYR (pyrene 250 mg l^−1), 28 day samples.
The mark [11] stands for this setting: Tergitol NP-10 5 g l^−1, Single PAH.
Setting [12] is: Tergitol NP-10 10 g l^−1, Single PAH.
[13] abbreviates: Tergitol NP-10 5 g l^−1, Mixed PAH.

The text below walks through data of patent publication US20040023362A1, “Degradation of polycyclic aromatic hydrocarbons by microorganisms” (priority 2000, published 2004).

“Also recorded” adds a separate entry of the source.

`CCCCCCCCCCCCCCCC[N+](C)(C)C.[Br-]` [CTAB]: the “inhibitory concentration in well diffusion toxicity test” value with strain VUN 10,010 (peptone-glucose agar, 30° C.) was 0.01 to 0.05 g/L.

In the case of `c1ccc2c(c1)ccc1cc3c(ccc4ccccc43)cc12` [Dibenz[a,h]anthracene, dibenz[a,h]anthracene], the “PAH removal (%)” value is reported as 13.8 + 0.9% in series [1] (setting [10]); 5.9 ± 0.5% in series [1] (BSM, 56 day samples); 26.7 + 0.7% in the series on VUN 10,010 (setting [10]); 7.8 ± 0.6% in the series on VUN 10,010 (BSM, 56 day samples); 12.9 ± 0.3% in series [2] (BSM, 56 day samples); 24.4 ± 2.7% in [2] (BSM^g, 28 day samples). The “PAH removal (%)” value in [2] (MYPD, 28 day samples) is 36.7 ± 1.7%. The “concentration in the aqueous phase” value in series [3] (at surfactant CMC, gas chromatograph) is recorded as “below the detection limit”. The “Maximum Specific Degradation Rate” value in [4] (Brij 35 5 g l^−1, Single PAH) was 6.26 mg PAH degraded mg^−1 protein day^−1; in series [4] (Brij 35 10 g l^−1, Single PAH) it was 7.20 mg PAH degraded mg^−1 protein day^−1; in [4] (No Surfactant, Single PAH), 4.17 mg PAH degraded mg^−1 protein day^−1; in [4] (setting [11]), 7.32 mg PAH degraded mg^−1 protein day^−1; in series [4] (setting [12]), 8.74 mg PAH degraded mg^−1 protein day^−1; in series [5] (No Surfactant, Mixed PAH), 1.20 mg PAH degraded mg^−1 protein day^−1. For the same compound, the “Maximum Specific Degradation Rate” value in series [5] (setting [13]) is 2.89 mg PAH degraded mg^−1 protein day^−1. For the same compound, the “percentage change in maximum specific degradation rate due to surfactant addition” value was “+50%” in series [4] (Brij 35 5 g l^−1, Single PAH); “+73%” in series [4] (Brij 35 10 g l^−1, Single PAH); “+76%” in series [4] (setting [11]); 110% in series [4] (setting [12]); “+140%” in series [5] (setting [13]).

In the case of `CCCCCCCCCCCCOS(=O)(=O)[O-].[Na+]` [SDS], in the series with strain VUN 10,010 (peptone-glucose agar, 30° C.), the MIC was determined as 200 µg/mL.

Take Igepal CA-630: in the series with strain VUN 10,010 (concentrations of 5 and 10 g l^−1), the “effect on microbial growth” value is “some inhibition”. In addition, in series [6], the “CMC in BSM compared with deionized (distilled) water” value (shortened to “CMC in BSM compared with deionized”) is reported as “higher CMC values in BSM” and the CMC came out at 0.1078 mM. For the same compound, in series [3], the “MSR (molar solubilization ratio), PYR” value amounted to 0.0326 and the “log Km (micelle-phase/aqueous-phase partition coefficient), PYR” value amounted to 5.39. Also, in series [7], the “effect on growth of VUN 10,010 on pyrene (protein analysis, MPN)” value was “inhibited” and the “effect on pyrene degradation by VUN 10,010” value (“effect on pyrene degradation” below) is on record as “inhibited pyrene degradation; also recorded: inhibitory to pyrene degradation”. Further, the “HLB (hydrophile-lipophile balance number)” value (“HLB” below) in [8] is 13.0.

Consider Triton X-100, for which, in [6], the “CMC in BSM compared with deionized” value is listed as “higher CMC values in distilled water” and the CMC is 0.2320 mM. For the same compound, in series [3], the “MSR (molar solubilization ratio), BAP” value was 0.0113; the “MSR (molar solubilization ratio), FA” value is reported as 0.0508; the “MSR (molar solubilization ratio), PYR” value came out at 0.0352; the “log Km (micelle-phase/aqueous-phase partition coefficient), BAP” value came to 7.49. Also, in [3], the “log Km (micelle-phase/aqueous-phase partition coefficient), FA” value is 5.64 and the “log Km (micelle-phase/aqueous-phase partition coefficient), PYR” value was determined as 5.84. The “effect on pyrene degradation” value in series [7] is given as “enhanced”. Besides, the “HLB” value in series [8] is 13.5. In [9], the “MSR for benzo[a]pyrene” value is 1.5×10^−2.

As to Tyloxapol, in series [6], the “CMC in BSM compared with deionized” value was “higher CMC values in distilled water” and the CMC was found to be 0.0167 mM. In addition, in [3], the “MSR (molar solubilization ratio), PYR” value is 0.0820 and the “log Km (micelle-phase/aqueous-phase partition coefficient), PYR” value worked out at 6.60. In series [7], the “effect on growth of VUN 10,010 on pyrene (protein analysis, MPN)” value is recorded as “significantly improved” and the “effect on pyrene degradation” value was “enhanced”. The “reduction of time required for VUN 10,010 to degrade 250 mg l^−1 of pyrene” value in series [7] (surfactant 5-10 g l^−1, presolubilized pyrene) stood at 50%. In addition, the “HLB” value in [8] is 12.9.
